In one experiment the test system is LNCaP C4-2B. The experiment in a line: Cytotoxicity against human LNCaP C4-2B cells at 20 uM incubated for 72 hrs by CCK-8 method. In kind it is functional, cell-based.
In another experiment the test system is A549. The experiment can be described thus: Cytotoxicity against human A549 cells at 20 uM incubated for 72 hrs by CCK-8 method. In kind it is functional, cell-based.
Another experiment concerns MDA-MB-453. The experiment in a line: Cytotoxicity against human MDA-MB-453 cells at 20 uM incubated for 72 hrs by CCK-8 method. In kind it is functional, cell-based.
The test system of experiment [1] is SW620/AD300. The experiment in a line: Cytotoxicity against human SW620/AD300 cells at 20 uM incubated for 72 hrs by CCK-8 method. Type of experiment: functional, cell-based. In general terms: Tetrazolium dyes change colour on reduction, which living cells bring about.
Experiment [2] concerns SW620/AD300. The experiment can be described thus: Reversal of paclitaxel resistance in human SW620/AD300 cells assessed as reduction in paclitaxel IC50 at 20 uM and measured after 72 hrs by CCK-8 method (reference value: 3.4 +/- 0.1 microM). In kind it is functional, cell-based. Particulars: SW620/AD300, 72 h.
Experiment [3] concerns SW620/AD300. The experiment can be described thus: Reversal of paclitaxel resistance in human SW620/AD300 cells assessed as reversal fold by measuring ratio of paclitaxel IC50 to paclitaxel IC50 in presence of test compound at 20 uM and measured after 72 hrs by CCK-8 method. In kind it is functional.
Experiment [4] has as its system SW620/AD300. The experiment in a line: Inhibition of colony formation in human SW620/AD300 cells assessed as decrease in colony count at 20 uM measured after 7 days in presence of paclitaxel by crystal violet staining based analysis. In kind it is functional, cell-based. Particulars: time 7.0 day.
For experiment [5], the system named is SW620/AD300. The experiment in a line: Inhibition of colony formation in human SW620/AD300 cells assessed as decrease in colony count at 5 uM measured after 7 days in presence of paclitaxel by crystal violet staining based analysis. In kind it is functional, cell-based. Particulars: time 7.0 day.
Experiment [6] concerns SW620/AD300. The experiment in a line: Inhibition of colony formation in human SW620/AD300 cells assessed as decrease in colony count at 20 uM measured after 7 days by crystal violet staining based analysis. Type of experiment: functional, cell-based. Particulars: time 7.0 day.
Experiment [7] relates to SW620/AD300. The experiment can be described thus: Induction of cell cycle analysis in human SW620/AD300 cells assessed as increase in accumulation of cells at G2/M phase measured after 24 hrs by flow cytometry analysis. Particulars: dose 5-20 µM. In kind it is functional, cell-based. A general note: In flow cytometry, cells or beads pass a laser one at a time.
The subject of experiment [8] is SW620/AD300. The experiment can be described thus: Induction of cell cycle analysis in human SW620/AD300 cells assessed as increase in accumulation of cells at G0/G1 phase at 5 to 20 uM measured after 24 hrs by flow cytometry analysis. In kind it is functional, cell-based. Particulars: dose 5-20 µM.
Experiment [9] relates to SW620/AD300. The experiment can be described thus: Inhibition of colony formation in human SW620/AD300 cells assessed as decrease in colony count at 1 uM measured after 7 days by crystal violet staining based analysis. Type of experiment: functional, cell-based. Particulars: time 7.0 day.

Active and inactive are the calls of the source. The rule behind the calls is not given here.

Turning to `COC(OC)/C1=C/[C@H](O)[C@H]2[C@@H]([C@@H](C)CCC=C(C)C)CC[C@]2(C)C[C@@H]2C(C)=CC(=O)[C@@H]12`, the result with LNCaP C4-2B, in the experiment on A549, with MDA-MB-453 and in the experiment with SW620/AD300 [1] was inactive. Also, the IC50 – broadly, the concentration needed to halve the response being measured – in the experiment on SW620/AD300 [2] worked out at 0.25 µM. For the same molecule, in the experiment on SW620/AD300 [3], the “Ratio IC50” value is on record as 13.

`CC(C)=CCC[C@H](C)C1=CC[C@]2(C)C[C@@H]3C(C)=CC(=O)[C@H]3/C(CO)=C\C[C@@H]12`: the result with LNCaP C4-2B, with A549, in the experiment on MDA-MB-453 and with SW620/AD300 [1] was inactive. The IC50 in the experiment with SW620/AD300 [2] is 0.05 µM. In the experiment with SW620/AD300 [3], the “Ratio IC50” value amounted to 72. Further, the inhibition entry in the experiment on SW620/AD300 [4] and in the experiment with SW620/AD300 [5] was “Active” in each case. In the experiment with SW620/AD300 [6], the inhibition result is “inactive”. The Activity entry with SW620/AD300 [7] is “Dose-Dependent Effect”. For the same molecule, the result with SW620/AD300 [8] was Active.

`C/C1=C\C[C@@]2(C)CC[C@H]([C@@H](C)CC/C=C(\C)C(=O)O)/C2=C/C[C@@]2(C)O[C@@H]2CC1`: the result in the experiment on LNCaP C4-2B, with A549, in the experiment on MDA-MB-453 and in the experiment on SW620/AD300 [1] was inactive.

Regarding `CC(C)=CCC[C@H](C)[C@H]1CC[C@]2(C)C[C@@H]3C(CO)=CC(=O)[C@H]3/C(C)=C\C[C@@H]12`, the result in the experiment with LNCaP C4-2B, in the experiment with A549, in the experiment on MDA-MB-453 and in the experiment on SW620/AD300 [1] was inactive.

Take `CC(C)=CCC[C@H](C)C1=CC[C@]2(C)C[C@@H]3C(C)=CC(=O)[C@H]3/C(C=O)=C\C=C\12`: the outcome in the experiment with LNCaP C4-2B, with A549, in the experiment with MDA-MB-453 and in the experiment on SW620/AD300 [1] was inactive.

Turning to `CC(C)=CCC[C@H](C)[C@H]1CC[C@]2(C)C[C@@H]3C(C)=CC(=O)[C@H]3[C@@H](CO)/C=C\[C@@H]12`, the outcome in the experiment on LNCaP C4-2B, in the experiment with A549, in the experiment with MDA-MB-453 and in the experiment on SW620/AD300 [1] was inactive.

For the molecule `CC(C)=CCC[C@H](C)[C@H]1CC[C@]2(C)C[C@@]3(O)[C@H](C)CC(=O)[C@@H]3/C(CO)=C\C[C@@H]12`, the outcome in the experiment with LNCaP C4-2B, with A549, with MDA-MB-453 and in the experiment with SW620/AD300 [1] was inactive. Besides, the IC50 with SW620/AD300 [2] amounted to 1 µM. For the same molecule, in the experiment with SW620/AD300 [3], the “Ratio IC50” value is reported as 3.

For the molecule `C/C(=C\CC[C@](C)(O)[C@H]1CC[C@]2(C)C/C=C(\C)CC/C=C(\C)CC[C@@H]12)CO`, the result in the experiment with LNCaP C4-2B, in the experiment on A549, in the experiment on MDA-MB-453 and with SW620/AD300 [1] was inactive.

Turning to `C/C1=C/C[C@H]2[C@@H]([C@@H](C)CC/C=C(\C)CO)CC[C@]2(C)C/C=C(\C)CC[C@@H]1O`, the outcome with LNCaP C4-2B, with A549, with MDA-MB-453 and with SW620/AD300 [1] was inactive.

With `CC(C)=CCC[C@H](C)[C@H]1CC[C@]2(C)CC3=C(C(=O)C[C@H]3C)/C(CO)=C\C[C@@H]12`, the outcome in the experiment on LNCaP C4-2B, with A549, in the experiment with MDA-MB-453 and in the experiment with SW620/AD300 [1] was inactive.

`CC(=O)O[C@H]1C(=O)[C@@]2(C)[C@H]([C@H](OC(=O)c3ccccc3)[C@]3(O)C[C@H](OC(=O)[C@H](O)[C@@H](NC(=O)c4ccccc4)c4ccccc4)C(C)=C1C3(C)C)[C@]1(OC(C)=O)CO[C@@H]1C[C@@H]2O`: in the experiment on SW620/AD300 [9], the inhibition result was “inactive”.

For `CC(C)=CC(=O)C[C@H](C)[C@H]1CC[C@]2(C)C[C@@H]3C(C)=CC(=O)[C@H]3/C(CO)=C\C[C@@H]12`, the result in the experiment on LNCaP C4-2B, in the experiment with A549, in the experiment with MDA-MB-453 and with SW620/AD300 [1] was inactive. Also, the IC50 in the experiment on SW620/AD300 [2] amounted to 0.2 µM. Further, the “Ratio IC50” value in the experiment on SW620/AD300 [3] is 17.

`CC(C)=C/C=C/[C@H](C)[C@H]1CC[C@]2(C)C[C@@H]3C(C)=CC(=O)[C@H]3/C(CO)=C\C[C@@H]12`: the result in the experiment on LNCaP C4-2B, in the experiment with A549, with MDA-MB-453 and in the experiment on SW620/AD300 [1] was inactive.

Take `C/C1=C/C[C@H]2[C@@H]([C@@H](C)CC/C=C(\C)C(=O)O)CC[C@]2(C)C/C=C(\C)CC[C@@H]1O`: the outcome with LNCaP C4-2B, in the experiment on A549, in the experiment with MDA-MB-453 and in the experiment with SW620/AD300 [1] was inactive.

The values above are taken from ChEMBL document CHEMBL6071169, “Maydisens, Sesterterpenoids with Anti-MDR Activity from Bipolaris maydis” (J Nat Prod, 2024).
